In article PMC7912516, “New Antimicrobials Based on the Adarotene Scaffold with Activity against Multi-Drug Resistant Staphylococcus aureus and Vancomycin-Resistant Enterococcus” (Antibiotics, 2021):
“And” between values parts separate entries of the source, which are not always exact repeats. Equal entries are not always repeated. Where two headings read alike, the source gives them in different places.

How the values were obtained:
[1] = tested on: S. aureus strain 1 (MDR clinical isolate, MRSA, mecA positive); assay: MIC/MBC by broth micro-dilution (CLSI); assay type: cell-based, Staphylococcus aureus; settings: S. aureus Strain 1; for MBC: in square brackets
Protocol: (§1) The compounds were initially tested with a methicillin-resistant S. aureus and an E. faecalis clinical isolates (details in the experimental section), two MDR strains according to definition by Magiorakos et al.. The activity of studied compounds was assessed by broth micro-dilution method. Minimal Inhibitory Concentration (MIC), and Minimal Bactericidal Concentration (MBC) were determined and possible bacteriostatic or bactericidal activity was also investigated.
(§2) MICs and MBCs were determined according to CLSI (Clinical and Laboratory Standards Institute) guidelines, in triplicate. Results are shown as modal values of the three replicates. According to MIC and MBC data, the killing rate was calculated as the ratio between MBC and MIC on which basis it is possible to define the compounds tested as bactericides (killing rate = 1–4), or bacteriostatic (killing rate > 4).
(§3) Preparation of the solution containing molecules: for each molecule to be tested, solutions were made as DMSO stock, with a concentration of 2.560 mg/mL. Scalar dilutions were than prepared directly on plates by using Mueller Hinton Broth (MHB) as a growth medium (range 0.5–256 µg/mL).
(§4) Bacterial suspension preparation: cryostrains preserved at −80 °C were recovered by incubation in growth medium (Brain Heart Infusion Broth, BHI) for 24–48 h at 35 ± 2 °C followed by passages in agar growth medium (Columbia Blood Agar). Colonies with less than 30 h were suspended in MHB with the purpose to prepare a bacterial suspension with a turbidity of 0.5 MF, containing approximately 1.5 × 10^8 cfu/mL. This suspension was than diluted in MHB until reaching a final concentration of 5 × 10^4 CFU/well. Simultaneously, check in broth-microdilution only with solvent (in order to exclude that the effect of growth inhibition might be due to the drug solution solvent), positive growth control in absence of DMSO and drug, and negative purity control only with injection broth were performed.
S. aureus strain 1 (collection, MDR): mecA positive; MRSA, β-lactamase positive, resistant to ciprofloxacin, gentamicin and erythromycin.

[2] = tested on: E. faecalis strain 1 (MDR clinical isolate); assay: MIC/MBC by broth micro-dilution (CLSI); assay type: cell-based, Enterococcus faecalis; settings: for MBC: in square brackets
Protocol: as §1, §2, §3, §4
E. faecalis strain 1 (collection, MDR) vanA/B negative; aminoglycosides high-level resistant to aminoglycosides (gentamicin and streptomycin) and ampicillin.

[3] = tested on: tumor cell line IGROV-1; settings: ± SD, read-out: IC50 (concentration required for 50% inhibition of cell growth), cited from earlier work
[4] = tested on: S. aureus ATCC 25923 (reference strain); assay: MIC/MBC by broth micro-dilution (CLSI); assay type: cell-based; settings: Staphylococcus aureus; for MIC: ATCC25923, modal value
Protocol: (§5) To expand the previously obtained results compounds 16 and 17 were also tested on wider a selection of strains: two other MDR S. aureus and E. faecalis clinical isolates, the S. aureus ATCC 25923 and the E. faecalis ATCC 51299 reference strains. Compound 2, which was endowed with low antimicrobial activity, was tested as well, to confirm its low efficacy. Adarotene was used as control compound (Table 2).
as §2, §3, §4
S. aureus ATCC 25923 (reference strain): mecA negative; multi-susceptible.

[5] = tested on: S. aureus strain 2 (MDR clinical isolate); assay: MIC/MBC by broth micro-dilution (CLSI); assay type: cell-based; settings: Staphylococcus aureus, modal value
Protocol: as §5, §2, §3, §4
S. aureus strain 2 (collection, MDR): mecA negative; β-lactamase positive, resistant to erythromycin, gentamicin, clindamycin and fusidic acid.

[6] = tested on: E. faecalis ATCC 51299 (reference strain, vanB positive); assay: MIC/MBC by broth micro-dilution (CLSI); assay type: cell-based; settings: Enterococcus faecalis; for MIC: ATCC51299, modal value
Protocol: as §5, §2, §3, §4
E. faecalis ATCC 51299 (reference strain): vanB positive.

[7] = tested on: E. faecalis strain 2 (MDR clinical isolate); assay: MIC/MBC by broth micro-dilution (CLSI); assay type: cell-based; settings: Enterococcus faecalis, modal value
Protocol: as §5, §2, §3, §4
E. faecalis strain 2 (collection, MDR) vanA/B negative; aminoglycosides high-level resistant to aminoglycosides (gentamicin and strseptomycin) and ampicillin.

[8] = tested on: tumor cell line H-460 NCI; parameters: method as in PMID 32920362; settings: ± SD, ref [17], read-out: IC50 (concentration required for 50% inhibition of cell growth); cited from earlier work
[9] = modal value of three replicates
[10] = Staphylococcus aureus, MRSA, modal value, read-out: MIC
[11] = Staphylococcus aureus, MRSA, modal value
[12] = Enterococcus faecalis, modal value
[13] = Enterococcus faecalis, modal value of three replicates, read-out: MIC
[14] = Enterococcus faecalis, modal value, read-out: MIC
[15] = Staphylococcus aureus, MRSA, modal value of three replicates, read-out: MIC

Row | SMILES | MIC [1, 9] | MIC [1, 10] [µM] | MIC [2, 13] [µg/mL] | MIC [2, 14] [µM] | MIC [2, 9] | MIC [1, 15] [µg/mL] | MBC [1, 11] | MBC [2, 12] | IC50 ([3]; ref [13]) [nM] | IC50 ([3]; ref [14]) [nM] | MBC ([4]; ATCC25923, in square brackets, modal value) | MIC [4] | MBC ([5]; in square brackets) | MIC [5] | MBC ([6]; ATCC51299, in square brackets, modal value) | MIC [6] | MBC ([7]; in square brackets) | MIC [7] | IC50 [8] [µM] | IC50 ([3]; ref [15]) [nM]
1 | N#C/C=C/c1ccc(-c2ccc(O)c(C34CC5CC(CC(C5)C3)C4)c2)cc1 [Compound 4] | >= 32 µg/mL and 128 [128] µg/mL | 361 | ≥ 32 | 90 | 32 µg/mL | – | 128 µg/mL and 361 µM | 128 µg/mL and 360 µM | 8300 ± 1400 | – | – | – | – | – | – | – | – | – | – | –
2 | O=C(O)/C=C/c1ccc(-c2ccc(O)c(C34CC5CC(CC(C5)C3)C4)c2)cc1 [Adarotene, adarotene] | – | 21 | 1 | 3 | – | 8 | 16 µg/mL and 42 µM | 32 µg/mL and 85 µM | 230 ± 80 | – | 16 µg/mL and 42 µM | 8 µg/mL and 21 µM | 8 µg/mL and 21 µM | 4 µg/mL and 10 µM | 32 µg/mL and 84 µM | 2 µg/mL and 5 µM | 32 µg/mL and 84 µM | 4 µg/mL and 10 µM | – | –
3 | O=C(/C=C/c1ccc(-c2ccc(O)c(C34CC5CC(CC(C5)C3)C4)c2)cc1)Nc1ccc(O)cc1 [Compound 6] | >= 32 µg/mL and >256 µg/mL | > 549 | – | > 550 | >= 32 µg/mL and >256 µg/mL | – | – | – | 6600 ± 500 | – | – | – | – | – | – | – | – | – | – | –
4 | O=C(/C=C/c1ccc(-c2ccc(O)c(C34CC5CC(CC(C5)C3)C4)c2)cc1)NO [Compound 5] | 64 µg/mL | 164 | – | > 657 | >= 32 µg/mL and >256 µg/mL | ≥ 32 | – | – | – | – | – | – | – | – | – | – | – | – | – | 1100 ± 600
5 | C/C(=C\c1ccc(-c2ccc(O)c(C34CC5CC(CC(C5)C3)C4)c2)cc1)C(=O)O [Compound 8] | 2 µg/mL | 5 | 1 to 4 | 3 | 1 µg/mL | 2 to 4 | 8 µg/mL and 20 µM | 8 µg/mL and 21 µM | 7190 ± 1270 | – | – | – | – | – | – | – | – | – | – | –
6 | O=C(O)C=Cc1ccc(-c2ccc(OCCCCO)c(C34CC5CC(CC(C5)C3)C4)c2)cc1 [Compound 2, 3-[3′-adamantan-1-yl-4′-(hydroxybutoxy)-biphenyl-4-yl]-acrylic acid] | 256 µg/mL | 573 | > 256 | 287 | 128 µg/mL | > 256 | – | – | – | – | – | 256 µg/mL and 572 µM | – | 256 µg/mL and 572 µM | – | 64 µg/mL and 143 µM | – | 128 µg/mL and 286 µM | – | –
7 | CC(C)(C)c1cc(-c2ccc(/C=C/C(=O)O)cc2)ccc1O [Compound 1] | – | 216 | > 256 | > 864 | – | 64 | – | – | 30000 | – | – | – | – | – | – | – | – | – | – | –
8 | O=C(O)/C(F)=C\c1ccc(-c2ccc(O)c(C34CC5CC(CC(C5)C3)C4)c2)cc1 [Compound 7] | 4 µg/mL | 10 | – | 10 | 1 to 4 µg/mL and 4 µg/mL | 2 to 4 | 16 µg/mL and 40 µM | 16 µg/mL and 40 µM | > 3000 | – | – | – | – | – | – | – | – | – | – | –
9 | O=C(O)CCc1ccc(-c2ccc(O)c(C34CC5CC(CC(C5)C3)C4)c2)cc1 [Compound 10] | 16 [16] µg/mL | 42 | 16 | 42 | 16 µg/mL | 16 | 16 µg/mL and 42 µM | 32 µg/mL and 85 µM | 48400 ± 880 | – | – | – | – | – | – | – | – | – | – | –

Second part, led by results:

Row | MIC [1, 9] | MIC [1, 10] [µM] | MIC [2, 13] [µg/mL] | MIC [2, 14] [µM] | MIC [2, 9] | MIC [1, 15] [µg/mL] | SMILES | MBC [1, 11] | MBC [2, 12] | IC50 ([3]; ref [13]) [nM] | IC50 ([3]; ref [14]) [nM] | MBC ([4]; ATCC25923, in square brackets, modal value) | MIC [4] | MBC ([5]; in square brackets) | MIC [5] | MBC ([6]; ATCC51299, in square brackets, modal value) | MIC [6] | MBC ([7]; in square brackets) | MIC [7] | IC50 [8] [µM] | IC50 ([3]; ref [15]) [nM]
10 | – | 159 | 64 | 159 | – | 64 | O=Cc1cc(-c2ccc(/C=C/C(=O)O)cc2)cc(C23CC4CC(CC(C4)C2)C3)c1O [Compound 15] | – | – | – | 1640 ± 30 | – | – | – | – | – | – | – | – | – | –
11 | – | 40 | 8 | 20 | – | 16 | COc1cc(-c2ccc(/C=C/C(=O)O)cc2)cc(C23CC4CC(CC(C4)C2)C3)c1O [Compound 11] | 32 µg/mL and 80 µM | – | – | – | – | – | – | – | – | – | – | – | – | –
12 | – | 9 | 2 | 5 | – | 4 | O=C(O)/C=C/c1ccc(-c2cc3c(c(C45CC6CC(CC(C6)C4)C5)c2)OCCO3)cc1 [Compound 12] | – | – | – | 230 ± 70 | – | – | – | – | – | – | – | – | – | –
13 | 32 to 128 µg/mL and 128 µg/mL | 269 | – | 269 | 32 to 128 µg/mL and 128 µg/mL | – | O=C(O)/C=C/c1ccc(-c2ccc(O)c(C34CC5CC(CC(C5)C3)C4)c2)c(C=NOCC(=O)O)c1 [Compound 18] | – | – | – | – | – | – | – | – | – | – | – | – | > 10 | –
14 | – | 18 | 4 | 9 | – | 8 | CC(=O)NCc1cc(-c2ccc(/C=C/C(=O)O)cc2)cc(C23CC4CC(CC(C4)C2)C3)c1O [Compound 13] | 16 µg/mL and 36 µM | 16 µg/mL and 36 µM | – | 1240 ± 70 | – | – | – | – | – | – | – | – | – | –
15 | – | 5 | 8 | 20 | – | 2 | O=Cc1cc(/C=C/C(=O)O)ccc1-c1ccc(O)c(C23CC4CC(CC(C4)C2)C3)c1 [Compound 20] | 32 µg/mL and 80 µM | – | – | – | – | – | – | – | – | – | – | – | 3.2 ± 0.2 | –
16 | 32 µg/mL | 72 | 32 to 128 | 72 | 32 µg/mL | 32 to 128 | N=C(N)NCc1cc(/C=C/C(=O)O)ccc1-c1ccc(O)c(C23CC4CC(CC(C4)C2)C3)c1 [Compound 19] | 64 µg/mL and 144 µM | 64 µg/mL and 144 µM | – | – | – | – | – | – | – | – | – | – | > 10 | –
